# Results: PubChem BioAssay (NCI)
#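 Following 48 hours of exposure in 96-well plates, responses at five concentrations were used to interpolate endpoints linearly. The concentration for full growth arrest is given as TGI.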
# System: KM12 colon
# Assay: DTP human tumour cell line panel, 48 h
row,SMILES,TGI [µM]
1,CO/N=C/c1cc(OC)c(OC)c(OC)c1,> 100
2,CN(C)c1ccc(C(C=C2c3ccccc3Sc3ccccc32)=C(C#N)C#N)cc1,> 100
3,CN(C)/C=N/c1nc2c(ncn2C2OC(CO)C(O)C2O)c(=O)[nH]1 (centres undefined),> 100

# System: CCRF-CEM leukemia
# Assay: DTP human tumour cell line panel, 48 h
row,SMILES,TGI [µM]
1,O=[N+]([O-])c1ccc(C2=Nn3cnnc3SC2)o1,51.1
2,S=C1NC2(CCCCCC2)NN1c1ccccc1,> 64.9
3,Cc1ccc(Cc2c(=O)[nH]nc3ccccc23)cc1,> 100
4,COc1cccc(/C=C/c2cc(OC)c(OC)c(OC)c2)c1,> 100
5,CO/N=C/c1cc(OC)c(OC)c(OC)c1,> 100
6,CN(C)c1ccc(C(C=C2c3ccccc3Sc3ccccc32)=C(C#N)C#N)cc1,> 100

# System: HS 578T breast
# Assay: DTP human tumour cell line panel, 48 h
row,SMILES,TGI [µM]
1,S=C1NC2(CCCCCC2)NN1c1ccccc1,> 100

# System: DMS 114 small cell lung
# Assay: DTP human tumour cell line panel, 48 h
row,SMILES,TGI [µM]
1,O=[N+]([O-])c1ccc(C2=Nn3cnnc3SC2)o1,28.8
2,S=C1NC2(CCCCCC2)NN1c1ccccc1,> 100
3,Cc1ccc(Cc2c(=O)[nH]nc3ccccc23)cc1,> 100
4,COc1cccc(/C=C/c2cc(OC)c(OC)c(OC)c2)c1,> 100
5,CO/N=C/c1cc(OC)c(OC)c(OC)c1,> 100
6,CN(C)c1ccc(C(C=C2c3ccccc3Sc3ccccc32)=C(C#N)C#N)cc1,> 100
7,CN(C)/C=N/c1nc2c(ncn2C2OC(CO)C(O)C2O)c(=O)[nH]1 (centres undefined),> 100

# System: M19-MEL melanoma
# Assay: DTP human tumour cell line panel, 48 h
row,SMILES,TGI [µM]
1,O=[N+]([O-])c1ccc(C2=Nn3cnnc3SC2)o1,13.8
2,Cc1ccc(Cc2c(=O)[nH]nc3ccccc23)cc1,> 100
3,COc1cccc(/C=C/c2cc(OC)c(OC)c(OC)c2)c1,> 100
4,CO/N=C/c1cc(OC)c(OC)c(OC)c1,> 100
5,CN(C)c1ccc(C(C=C2c3ccccc3Sc3ccccc32)=C(C#N)C#N)cc1,> 100
6,CN(C)/C=N/c1nc2c(ncn2C2OC(CO)C(O)C2O)c(=O)[nH]1 (centres undefined),> 100

# System: SF-295 CNS
# Assay: DTP human tumour cell line panel, 48 h
row,SMILES,TGI [µM]
1,O=[N+]([O-])c1ccc(C2=Nn3cnnc3SC2)o1,34.6
2,S=C1NC2(CCCCCC2)NN1c1ccccc1,> 100
3,Cc1ccc(Cc2c(=O)[nH]nc3ccccc23)cc1,> 100
4,CO/N=C/c1cc(OC)c(OC)c(OC)c1,> 100
5,CN(C)c1ccc(C(C=C2c3ccccc3Sc3ccccc32)=C(C#N)C#N)cc1,> 100
6,CN(C)/C=N/c1nc2c(ncn2C2OC(CO)C(O)C2O)c(=O)[nH]1 (centres undefined),> 100

# System: 786-0 renal
# Assay: DTP human tumour cell line panel, 48 h
row,SMILES,TGI [µM]
1,O=[N+]([O-])c1ccc(C2=Nn3cnnc3SC2)o1,32.1
2,S=C1NC2(CCCCCC2)NN1c1ccccc1,> 100
3,Cc1ccc(Cc2c(=O)[nH]nc3ccccc23)cc1,> 100
4,COc1cccc(/C=C/c2cc(OC)c(OC)c(OC)c2)c1,> 100
5,CO/N=C/c1cc(OC)c(OC)c(OC)c1,> 100
6,CN(C)c1ccc(C(C=C2c3ccccc3Sc3ccccc32)=C(C#N)C#N)cc1,> 100
7,CN(C)/C=N/c1nc2c(ncn2C2OC(CO)C(O)C2O)c(=O)[nH]1 (centres undefined),> 100

# System: UACC-62 melanoma
# Assay: DTP human tumour cell line panel, 48 h
row,SMILES,TGI [µM]
1,S=C1NC2(CCCCCC2)NN1c1ccccc1,> 100
2,Cc1ccc(Cc2c(=O)[nH]nc3ccccc23)cc1,> 100
3,COc1cccc(/C=C/c2cc(OC)c(OC)c(OC)c2)c1,> 100
4,CO/N=C/c1cc(OC)c(OC)c(OC)c1,> 100
5,CN(C)c1ccc(C(C=C2c3ccccc3Sc3ccccc32)=C(C#N)C#N)cc1,> 100
6,CN(C)/C=N/c1nc2c(ncn2C2OC(CO)C(O)C2O)c(=O)[nH]1 (centres undefined),> 100

# System: SK-MEL-2 melanoma
# Assay: DTP human tumour cell line panel, 48 h
row,SMILES,TGI [µM]
1,O=[N+]([O-])c1ccc(C2=Nn3cnnc3SC2)o1,50.7
2,Cc1ccc(Cc2c(=O)[nH]nc3ccccc23)cc1,> 100
3,COc1cccc(/C=C/c2cc(OC)c(OC)c(OC)c2)c1,> 100
4,CO/N=C/c1cc(OC)c(OC)c(OC)c1,> 100
5,CN(C)c1ccc(C(C=C2c3ccccc3Sc3ccccc32)=C(C#N)C#N)cc1,> 100
6,CN(C)/C=N/c1nc2c(ncn2C2OC(CO)C(O)C2O)c(=O)[nH]1 (centres undefined),> 100

# System: LXFL 529 NSCLC
# Assay: DTP human tumour cell line panel, 48 h
row,SMILES,TGI [µM]
1,O=[N+]([O-])c1ccc(C2=Nn3cnnc3SC2)o1,26.4
2,COc1cccc(/C=C/c2cc(OC)c(OC)c(OC)c2)c1,> 100
3,CO/N=C/c1cc(OC)c(OC)c(OC)c1,> 100
4,CN(C)c1ccc(C(C=C2c3ccccc3Sc3ccccc32)=C(C#N)C#N)cc1,> 100
5,CN(C)/C=N/c1nc2c(ncn2C2OC(CO)C(O)C2O)c(=O)[nH]1 (centres undefined),> 100

# System: HCT-15 colon
# Assay: DTP human tumour cell line panel, 48 h
row,SMILES,TGI [µM]
1,O=[N+]([O-])c1ccc(C2=Nn3cnnc3SC2)o1,27.2
2,S=C1NC2(CCCCCC2)NN1c1ccccc1,> 100
3,Cc1ccc(Cc2c(=O)[nH]nc3ccccc23)cc1,> 100
4,COc1cccc(/C=C/c2cc(OC)c(OC)c(OC)c2)c1,> 100
5,CO/N=C/c1cc(OC)c(OC)c(OC)c1,> 100
6,CN(C)c1ccc(C(C=C2c3ccccc3Sc3ccccc32)=C(C#N)C#N)cc1,> 100
7,CN(C)/C=N/c1nc2c(ncn2C2OC(CO)C(O)C2O)c(=O)[nH]1 (centres undefined),> 100

# System: EKVX NSCLC
# Assay: DTP human tumour cell line panel, 48 h
row,SMILES,TGI [µM]
1,S=C1NC2(CCCCCC2)NN1c1ccccc1,> 100
2,Cc1ccc(Cc2c(=O)[nH]nc3ccccc23)cc1,> 100
3,COc1cccc(/C=C/c2cc(OC)c(OC)c(OC)c2)c1,> 100
4,CO/N=C/c1cc(OC)c(OC)c(OC)c1,> 100
5,CN(C)c1ccc(C(C=C2c3ccccc3Sc3ccccc32)=C(C#N)C#N)cc1,> 100
6,CN(C)/C=N/c1nc2c(ncn2C2OC(CO)C(O)C2O)c(=O)[nH]1 (centres undefined),> 100

# System: RPMI-8226 leukemia
# Assay: DTP human tumour cell line panel, 48 h
row,SMILES,TGI [µM]
1,O=[N+]([O-])c1ccc(C2=Nn3cnnc3SC2)o1,42.5
2,S=C1NC2(CCCCCC2)NN1c1ccccc1,> 100
3,Cc1ccc(Cc2c(=O)[nH]nc3ccccc23)cc1,> 100
4,COc1cccc(/C=C/c2cc(OC)c(OC)c(OC)c2)c1,> 100
5,CO/N=C/c1cc(OC)c(OC)c(OC)c1,> 100
6,CN(C)c1ccc(C(C=C2c3ccccc3Sc3ccccc32)=C(C#N)C#N)cc1,> 100
7,CN(C)/C=N/c1nc2c(ncn2C2OC(CO)C(O)C2O)c(=O)[nH]1 (centres undefined),> 100

# System: SW-620 colon
# Assay: DTP human tumour cell line panel, 48 h
row,SMILES,TGI [µM]
1,O=[N+]([O-])c1ccc(C2=Nn3cnnc3SC2)o1,25.3
2,S=C1NC2(CCCCCC2)NN1c1ccccc1,> 100
3,Cc1ccc(Cc2c(=O)[nH]nc3ccccc23)cc1,> 100
4,COc1cccc(/C=C/c2cc(OC)c(OC)c(OC)c2)c1,> 100
5,CO/N=C/c1cc(OC)c(OC)c(OC)c1,> 100
6,CN(C)c1ccc(C(C=C2c3ccccc3Sc3ccccc32)=C(C#N)C#N)cc1,> 100
7,CN(C)/C=N/c1nc2c(ncn2C2OC(CO)C(O)C2O)c(=O)[nH]1 (centres undefined),> 100

# System: OVCAR-3 ovarian
# Assay: DTP human tumour cell line panel, 48 h
row,SMILES,TGI [µM]
1,O=[N+]([O-])c1ccc(C2=Nn3cnnc3SC2)o1,31.7
2,S=C1NC2(CCCCCC2)NN1c1ccccc1,> 100
3,Cc1ccc(Cc2c(=O)[nH]nc3ccccc23)cc1,> 100
4,COc1cccc(/C=C/c2cc(OC)c(OC)c(OC)c2)c1,> 100
5,CO/N=C/c1cc(OC)c(OC)c(OC)c1,> 100
6,CN(C)c1ccc(C(C=C2c3ccccc3Sc3ccccc32)=C(C#N)C#N)cc1,> 100
7,CN(C)/C=N/c1nc2c(ncn2C2OC(CO)C(O)C2O)c(=O)[nH]1 (centres undefined),> 100

# System: NCI-H522 lung
# Assay: DTP human tumour cell line panel, 48 h
row,SMILES,TGI [µM]
1,S=C1NC2(CCCCCC2)NN1c1ccccc1,> 100
2,COc1cccc(/C=C/c2cc(OC)c(OC)c(OC)c2)c1,> 100
3,CO/N=C/c1cc(OC)c(OC)c(OC)c1,> 100

# System: HOP-18 NSCLC
# Assay: DTP human tumour cell line panel, 48 h
row,SMILES,TGI [µM]
1,S=C1NC2(CCCCCC2)NN1c1ccccc1,> 100
2,Cc1ccc(Cc2c(=O)[nH]nc3ccccc23)cc1,> 100
3,CO/N=C/c1cc(OC)c(OC)c(OC)c1,> 100
4,CN(C)c1ccc(C(C=C2c3ccccc3Sc3ccccc32)=C(C#N)C#N)cc1,> 100
